Literature values, collected in patent US5714511A, “Selective prevention of organ injury in sepsis and shock using selection release of nitric oxide in vulnerable organs” (The United States of America as represented by the …, priority 1995, dated 1998).

How the values were obtained:
[1] = test system: hemorrhagic shock in rats
[2] = test system: DNA synthesis

Row | Compound | protective effect in hemorrhagic shock [1] | inhibition of DNA synthesis [2] | solubility in aqueous media
1 | CC(=O)N[C@H](C(=O)O)C(C)(C)SN=O [SNAP, S-nitroso-N-acetyl-penicillamine] | significant protective effects of SNAP in hemorrhagic shock in rats | effective at inhibiting DNA synthesis | 
2 | Nitric oxide |  |  | limited solubility in aqueous media
